Measured values as given in ChEMBL document CHEMBL5303573, “Mapping human microbiome drug metabolism by gut bacteria and their genes” (Nature, 2019).

Legend:
[1] = target: T1, Lipase (Bacteroides thetaiotaomicron, UniProt Q8A3J3); assay: The drug is tested on Bacteroides thetaiotaomicron strain: VPI-5482 for biotransformation. The drug concentrations were measured before and after a 12-h incubation by liquid-chromatography-coupled mass spectrometry (LC–MS); assay type: ADME; parameters: dose 2 uM; conditions: 2 µM
T1 sequence (Q8A3J3 whole entry): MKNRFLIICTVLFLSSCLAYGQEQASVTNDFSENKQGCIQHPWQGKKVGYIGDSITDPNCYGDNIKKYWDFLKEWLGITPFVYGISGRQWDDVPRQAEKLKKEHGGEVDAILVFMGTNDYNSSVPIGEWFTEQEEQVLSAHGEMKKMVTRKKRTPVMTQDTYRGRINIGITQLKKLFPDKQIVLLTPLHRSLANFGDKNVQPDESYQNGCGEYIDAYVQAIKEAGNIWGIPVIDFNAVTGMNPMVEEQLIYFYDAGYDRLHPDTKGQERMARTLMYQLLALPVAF

[2] = target: T2, GDSL-like protein (Collinsella aerofaciens, UniProt A4E8S4); assay: The drug is tested on Collinsella aerofaciens strain: ATCC25986 for biotransformation. The drug concentrations were measured before and after a 12-h incubation by liquid-chromatography-coupled mass spectrometry (LC–MS); assay type: ADME; parameters: dose 2 uM; conditions: 2 µM
T2 sequence (A4E8S4 whole entry): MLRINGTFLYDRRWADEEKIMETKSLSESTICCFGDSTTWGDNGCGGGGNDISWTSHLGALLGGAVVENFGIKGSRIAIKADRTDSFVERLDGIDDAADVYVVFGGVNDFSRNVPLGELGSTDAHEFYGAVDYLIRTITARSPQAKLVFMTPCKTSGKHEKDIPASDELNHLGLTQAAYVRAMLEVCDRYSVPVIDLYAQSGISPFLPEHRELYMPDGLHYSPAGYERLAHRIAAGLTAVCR

[3] = target: T3, Esterase (Phocaeicola dorei, UniProt B6W2J6); assay: (§1) The drug is tested on Bacteroides dorei strain: DSM17855 for biotransformation. The drug concentrations were measured before and after a 12-h incubation by liquid-chromatography-coupled mass spectrometry (LC–MS); assay type: ADME; parameters: dose 2 uM; conditions: 2 µM
T3 sequence (B6W2J6 whole entry): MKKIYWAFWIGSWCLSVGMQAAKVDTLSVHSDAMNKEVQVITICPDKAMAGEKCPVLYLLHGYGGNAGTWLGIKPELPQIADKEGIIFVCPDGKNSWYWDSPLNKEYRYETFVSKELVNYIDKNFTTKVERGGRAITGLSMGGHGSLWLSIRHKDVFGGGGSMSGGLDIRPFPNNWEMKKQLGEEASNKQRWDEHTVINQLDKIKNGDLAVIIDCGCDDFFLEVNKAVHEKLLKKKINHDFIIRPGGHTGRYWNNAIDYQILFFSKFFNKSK

[4] = target: T4, Nitroreductase domain-containing protein (Phocaeicola dorei, UniProt B6VU18); assay: as §1; assay type: ADME; parameters: dose 2 uM; conditions: 2 µM
T4 sequence (B6VU18 whole entry): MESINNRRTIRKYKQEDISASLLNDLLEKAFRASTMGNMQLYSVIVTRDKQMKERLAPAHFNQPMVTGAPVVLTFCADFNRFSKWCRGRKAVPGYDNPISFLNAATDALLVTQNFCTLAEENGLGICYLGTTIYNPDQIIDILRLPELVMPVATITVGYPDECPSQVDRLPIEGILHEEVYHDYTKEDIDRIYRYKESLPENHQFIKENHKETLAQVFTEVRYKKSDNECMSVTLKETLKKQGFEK

[5] = target: T5, SGNH hydrolase-type esterase domain-containing protein (Phocaeicola dorei, UniProt B6VTE7); assay: as §1; assay type: ADME; parameters: dose 2 uM; conditions: 2 µM
T5 sequence (B6VTE7 whole entry): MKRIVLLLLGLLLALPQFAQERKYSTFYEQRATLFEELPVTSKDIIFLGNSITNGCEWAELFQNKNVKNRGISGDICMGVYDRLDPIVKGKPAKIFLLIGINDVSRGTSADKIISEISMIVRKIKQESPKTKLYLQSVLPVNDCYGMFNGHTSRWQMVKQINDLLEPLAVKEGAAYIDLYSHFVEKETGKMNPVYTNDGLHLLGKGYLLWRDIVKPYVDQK

[6] = target: T6, SGNH hydrolase-type esterase domain-containing protein (Phocaeicola dorei, UniProt B6W1J1); assay: as §1; assay type: ADME; parameters: dose 2 uM; conditions: 2 µM
T6 sequence (B6W1J1 whole entry): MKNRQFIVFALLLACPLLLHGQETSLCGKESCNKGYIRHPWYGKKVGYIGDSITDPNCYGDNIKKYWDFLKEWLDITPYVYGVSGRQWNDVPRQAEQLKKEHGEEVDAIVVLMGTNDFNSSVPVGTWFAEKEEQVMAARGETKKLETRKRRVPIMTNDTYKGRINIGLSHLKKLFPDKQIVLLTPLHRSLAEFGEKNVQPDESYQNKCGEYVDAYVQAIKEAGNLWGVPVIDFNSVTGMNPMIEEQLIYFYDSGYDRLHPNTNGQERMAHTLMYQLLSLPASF

[7] = target: T7, SGNH hydrolase-type esterase domain-containing protein (Phocaeicola dorei, UniProt B6W293); assay: as §1; assay type: ADME; parameters: dose 2 uM; conditions: 2 µM
T7 sequence (B6W293 whole entry): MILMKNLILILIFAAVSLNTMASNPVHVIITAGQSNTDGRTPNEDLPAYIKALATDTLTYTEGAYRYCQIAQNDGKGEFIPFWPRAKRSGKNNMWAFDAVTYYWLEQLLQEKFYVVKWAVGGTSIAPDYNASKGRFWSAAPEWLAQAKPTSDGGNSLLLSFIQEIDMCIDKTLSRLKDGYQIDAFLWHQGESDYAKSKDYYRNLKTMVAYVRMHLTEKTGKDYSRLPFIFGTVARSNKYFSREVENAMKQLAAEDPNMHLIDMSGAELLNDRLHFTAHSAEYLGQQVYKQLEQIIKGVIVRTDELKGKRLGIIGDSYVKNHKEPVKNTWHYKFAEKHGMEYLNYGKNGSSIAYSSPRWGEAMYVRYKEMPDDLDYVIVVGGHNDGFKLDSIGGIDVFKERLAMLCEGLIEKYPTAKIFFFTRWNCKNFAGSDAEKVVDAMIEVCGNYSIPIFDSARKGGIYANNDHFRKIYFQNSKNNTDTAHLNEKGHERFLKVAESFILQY

[8] = target: T8, Steroid 5-alpha reductase C-terminal domain-containing protein (Phocaeicola dorei, UniProt B6W0N3); assay: as §1; assay type: ADME; parameters: dose 2 uM; conditions: 2 µM
T8 sequence (B6W0N3 whole entry): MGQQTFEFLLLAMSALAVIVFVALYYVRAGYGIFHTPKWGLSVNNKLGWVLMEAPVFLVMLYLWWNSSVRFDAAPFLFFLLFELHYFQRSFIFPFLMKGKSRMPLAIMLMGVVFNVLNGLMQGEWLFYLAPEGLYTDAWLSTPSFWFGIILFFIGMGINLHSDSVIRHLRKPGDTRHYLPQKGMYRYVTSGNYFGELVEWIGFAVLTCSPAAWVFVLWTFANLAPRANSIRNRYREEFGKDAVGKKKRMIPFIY

[9] = clostridioides difficile, 12 h, 2 µM
Description: The drug is tested on Clostridium difficile strain: 120 for biotransformation. The drug concentrations were measured before and after a 12-h incubation by liquid-chromatography-coupled mass spectrometry (LC–MS)

[10] = The drug is tested on Salmonella typhimurium strain: LT2 for biotransformation. The drug concentrations were measured before and after a 12-h incubation by liquid-chromatography-coupled mass spectrometry (LC–MS); conditions: salmonella enterica subsp. enterica, 2 µM

Structure (SMILES)	Bacterial Biotransformation [1]	Bacterial Biotransformation [2]	Bacterial Biotransformation [3]	Bacterial Biotransformation [4]	Bacterial Biotransformation [5]	Bacterial Biotransformation [6]	Bacterial Biotransformation [7]	Bacterial Biotransformation [8]	Bacterial Biotransformation [9]	Bacterial Biotransformation [10]
C[C@@H]1CC[C@H]2[C@@H](C)C(=O)O[C@@H]3O[C@@]4(C)CC[C@@H]1[C@]32OO4 [ARTEMISININ]	Compound NOT metabolized	Compound NOT metabolized	Compound NOT metabolized	Compound NOT metabolized	Compound NOT metabolized	Compound NOT metabolized	Compound NOT metabolized	Compound NOT metabolized	Compound metabolized	
CC(=O)Oc1ccc(C(c2ccc(OC(C)=O)cc2)c2ccccn2)cc1 [BISACODYL]	Compound metabolized	Compound metabolized	Compound metabolized	Compound NOT metabolized	Compound metabolized	Compound metabolized	Compound metabolized	Compound NOT metabolized		Compound metabolized
COc1ccnc(C[S+]([O-])c2nc3ccc(OC(F)F)cc3[nH]2)c1OC (stereo not given) [PANTOPRAZOLE]	Compound NOT metabolized	Compound NOT metabolized	Compound metabolized	Compound NOT metabolized	Compound metabolized	Compound metabolized	Compound metabolized	Compound NOT metabolized		
C#C[C@]1(O)CC[C@H]2[C@@H]3CCC4=Cc5oncc5C[C@]4(C)[C@H]3CC[C@@]21C [DANAZOL]	Compound NOT metabolized	Compound NOT metabolized	Compound NOT metabolized	Compound NOT metabolized	Compound NOT metabolized	Compound NOT metabolized	Compound NOT metabolized	Compound NOT metabolized		
CC(=O)OCC(=O)NCCCOc1cccc(CN2CCCCC2)c1 [ROXATIDINE ACETATE]	Compound NOT metabolized	Compound NOT metabolized	Compound NOT metabolized	Compound NOT metabolized	Compound NOT metabolized	Compound NOT metabolized	Compound NOT metabolized	Compound NOT metabolized		
CC(=O)Nc1ccc(OC(C)=O)cc1 [DIACETAMATE]	Compound metabolized	Compound metabolized	Compound metabolized	Compound NOT metabolized	Compound metabolized	Compound metabolized	Compound metabolized	Compound NOT metabolized		
